What all share (format): functional
In test [1] the test system is Mycobacterium tuberculosis. The test can be described thus: Antimycobacterial activity against Mycobacterium tuberculosis H37Rv expressing GFP after 7 days. Particulars: 168 h.
The test system of test [2] is Mycobacterium tuberculosis. Description: Antimycobacterial activity against Mycobacterium tuberculosis MDR_CHUV by resazurin reduction microplate assay. In general terms: Resazurin is reduced to fluorescent resorufin, in cell work by metabolically active cells.
Test [3] relates to Mycobacterium tuberculosis. Description: Antimycobacterial activity against Mycobacterium tuberculosis after 14 days. Particulars: 336 h.

SMILES strings stand for the structures. Converted amounts (≈) assume the structure as drawn.

The term MIC denotes the lowest concentration found to suppress growth. A higher MIC goes with a less susceptible organism.

In turn, `Cn1nc([N+](=O)[O-])nc1Oc1ccc(C(C)(C)C)cc1` yielded an MIC in test [1] of 0.5 µM (≈ 0.138 µg/mL).
Turning to `O=c1nc(N2CCN(CC3CCCCC3)CC2)sc2c([N+](=O)[O-])cc(C(F)(F)F)cc12` [MACOZINONE], in test [2], the minimal inhibitory concentration (MIC) turned out to be 0.0004 µM (≈ 0.000183 µg/mL).
`C[C@]1(COc2ccc(N3CCC(Oc4ccc(OC(F)(F)F)cc4)CC3)cc2)Cn2cc([N+](=O)[O-])nc2O1` [DELAMANID] gave an MIC in test [3] of 0.023 µM (≈ 0.0123 µg/mL).
As to `COc1ccc(OCCNC(=O)c2cc([N+](=O)[O-])cc([N+](=O)[O-])c2)cc1`, the lowest concentration to inhibit growth in test [1] (MIC) was 0.2 µM (≈ 0.0723 µg/mL).

For the origin of these results see ChEMBL document CHEMBL4002566, “S-substituted 3,5-dinitrophenyl 1,3,4-oxadiazole-2-thiols and tetrazole-5-thiols as highly efficient antitubercular agents” (Eur J Med Chem, 2017).
